Measured values: US9828350B2, “5,6-dihydro-2H-[1,4]oxazin-3-yl-amine derivatives useful as inhibitors of beta-secretase (BACE)” (Janssen Pharmaceutica NV, priority 2010, dated 2017)

Key:
Abeta total = experiment: Cellular αLisa assay in SKNBE2 cells, Abeta total; format: cell-based, human; conditions: incubated for 18 hours; for IC50: Homo sapiens, SKNBE2, 18 h, read-out: Cellular αLisa assay in SKNBE2 cells Abetatotal pIC50 (converted)
Procedure: (§1) Cellular αLisa Assay in SKNBE2 Cells
(§2) In two αLisa assays the levels of Abeta total and Abeta 1-42 produced and secreted into the medium of human neuroblastoma SKNBE2 cells are quantified. The assay is based on the human neuroblastoma SKNBE2 expressing the wild type Amyloid Precursor Protein (hAPP695). The compounds are diluted and added to these cells, incubated for 18 hours and then measurements of Abeta 1-42 and Abeta total are taken. Abeta total and Abeta 1-42 are measured by sandwich αLisa. αLisa is a sandwich assay using biotinylated antibody AbN/25 attached to streptavidin coated beads and antibody Ab4G8 or cAb42/26 conjugated acceptor beads for the detection of Abeta total and Abeta 1-42 respectively. In the presence of Abeta total or Abeta 1-42, the beads come into close proximity. The excitation of the donor beads provokes the release of singlet oxygen molecules that trigger a cascade of energy transfer in the acceptor beads, resulting in light emission. Light emission is measured after 1 hour incubation (excitation at […] and emission at 615 nm).

[1] = target: recombinant BACE1 protein (Homo sapiens, UniProt P56817); experiment: Biochemical FRET based assay; conditions: recombinant BACE1 1 μg/ml, 120 minutes at room temperature, pH 5.0; for IC50: read-out: Biochemical FRET based assay pIC50 (converted)
Sequence of recombinant BACE1 protein (P56817 46-501): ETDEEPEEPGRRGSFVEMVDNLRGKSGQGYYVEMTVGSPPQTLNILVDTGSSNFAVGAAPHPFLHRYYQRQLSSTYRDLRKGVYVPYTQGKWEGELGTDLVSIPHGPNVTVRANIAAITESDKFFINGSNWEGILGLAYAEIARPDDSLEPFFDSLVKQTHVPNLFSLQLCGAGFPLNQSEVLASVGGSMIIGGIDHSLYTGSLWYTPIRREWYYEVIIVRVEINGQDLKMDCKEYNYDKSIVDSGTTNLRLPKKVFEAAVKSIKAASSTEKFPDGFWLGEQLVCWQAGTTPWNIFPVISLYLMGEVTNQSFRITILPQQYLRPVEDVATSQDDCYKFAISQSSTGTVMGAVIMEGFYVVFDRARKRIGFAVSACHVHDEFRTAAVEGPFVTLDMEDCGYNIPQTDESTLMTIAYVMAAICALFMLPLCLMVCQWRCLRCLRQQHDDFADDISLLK
Text: Biochemical FRET Based Assay
This assay is a Fluorescence Resonance Energy Transfer Assay (FRET) based assay. The substrate for this assay is an APP derived 13 amino acids peptide that contains the ‘Swedish’ Lys-Met/Asn-Leu mutation of the amyloid precursor protein (APP) beta-secretase cleavage site. This substrate also contains two fluorophores: (7-methoxycoumarin-4-yl) acetic acid (Mca) is a fluorescent donor with excitation wavelength at 320 nm and emission at 405 nm and 2,4-Dinitrophenyl (Dnp) is a proprietary quencher acceptor. […] Upon cleavage by BACE1, the fluorophore Mca is separated from the quenching group Dnp, restoring the full fluorescence yield of the donor. The increase in fluorescence is linearly related to the rate of proteolysis.
Briefly in a 384-well format recombinant BACE1 protein in a final concentration of 1 μg/ml is incubated for 120 minutes at room temperature with […] substrate in incubation buffer (40 mM Citrate buffer pH 5.0, 0.04% PEG, 4% DMSO) in the absence or presence of compound. Next the amount of proteolysis is directly measured by fluorescence measurement at T=0 and T=120 (excitation at 320 nm and emission at 405 nm). Results are expressed in RFU (Relative Fluorescence Units), as difference between T120 and TO.

Abeta 1-42 = experiment: Cellular αLisa assay in SKNBE2 cells, Abeta 1-42; format: cell-based, human; conditions: incubated for 18 hours; for IC50: Homo sapiens, SKNBE2, 18 h, read-out: Cellular αLisa assay in SKNBE2 cells Abeta 42 pIC50 (converted)
Procedure: as §1, §2

| SMILES | Cellular αLisa assay in SKNBE2 cells Abetatotal pIC50 (Abeta total) | Biochemical FRET based assay pIC50 [1] | Cellular αLisa assay in SKNBE2 cells Abeta 42 pIC50 (Abeta 1-42) | IC50 (Abeta total) [nM] | IC50 [1] [nM] | IC50 (Abeta 1-42) [nM] |
| --- | --- | --- | --- | --- | --- | --- |
| Cc1cnc(C(=O)Nc2cccc(C3(C)COCC(N)=N3)c2)cn1 (racemic) [Compound 7] | 6.53 | 5.39 | 6.49 |  |  |  |
| CC1(c2cccc(-c3cccc(C#N)c3)c2)COCC(N)=N1 (racemic) [Compound 10] | 6.58 | 5.12 | 6. |  |  |  |
| Cc1cncc(-c2cccc(C3(C)COCC(N)=N3)c2)c1 (racemic) [Compound 11] | 6.33 | 4.84 | 6.2 |  |  |  |
| CC1(c2cc(NC(=O)c3ccc(C(F)(F)F)cn3)c(F)cc2F)COCC(N)=N1 (racemic) [Compound 13] | 6.84 | 5.37 | 6.83 |  |  |  |
| COc1cncc(-c2cccc(C3(C)COC4(CC4)C(N)=N3)c2)c1 (racemic) [Compound 16, rac-6-[3-(5-methoxypyridin-3-yl)phenyl]-6-methyl-4-oxa-7-azaspiro[2.5]oct-7-en-8-amine] |  |  |  | 355 | 2190 | 389 |
| COc1cncc(-c2cccc([C@]3(C)CO[C@@H](C)C(N)=N3)c2)c1 (racemic) [Compound 18, trans-rac-5-[3-(5-methoxypyridin-3-yl)phenyl]-2,5-dimethyl-5,6-dihydro-2H-1,4-oxazin-3-amine] | 6.61 | 5.54 | 6.57 |  |  |  |
| COc1cncc(-c2cccc([C@@]3(C)CO[C@@H](C)C(N)=N3)c2)c1 (racemic) [Compound 19, cis-rac-5-[3-(5-methoxypyridin-3-yl)phenyl]-2,5-dimethyl-5,6-dihydro-2H-1,4-oxazin-3-amine] | 6.352 | 5.38 | 6.29 |  |  |  |
| C[C@H]1OC[C@](C)(c2cccc(NC(=O)c3ccc(Cl)cn3)c2)N=C1N (racemic) [Compound 20, trans-rac-N-[3-(5-Amino-3,6-dimethyl-3,6-dihydro-2H-1,4-oxazin-3-yl)phenyl]-5-chloropyridine-2-carboxamide] | 7.86 | 6.78 | 7.81 |  |  |  |
| CC1(c2cccc(NC(=O)c3ccc(C#N)cc3)c2)COCC(N)=N1.Cl (racemic) [Compound 42] | 5.9 | 5.74 | 5.85 |  |  |  |
| CC1(c2cc(-c3cncnc3)ccc2F)COCC(N)=N1 (racemic) [Compound 58] | 6.68 | 5.11 | 6.7 |  |  |  |
| CC1(c2cc(NC(=O)c3ccc(Cl)cn3)c(F)cc2F)COCC(N)=N1 (racemic) [Compound 60] | 6.92 | 5.65 | 6.89 |  |  |  |
| COc1cncc(-c2ccc(F)c(C3(C)COCC(N)=N3)c2)c1 (racemic) [Compound 63] | 6.9 | 5.46 | 6.94 |  |  |  |
| CC1(c2cccc(NC(=O)c3ccc(C#N)cn3)c2)COCC(N)=N1 (racemic) [Compound 64] | 7.37 | 6.41 | 7.36 |  |  |  |
| COc1cncc(-c2cc(C3(C)COCC(N)=N3)c(F)cc2F)c1 (racemic) [Compound 66] | 7.0 | 5.69 | 6.92 |  |  |  |
| C[C@@]1(c2cc(-c3cncnc3)c(F)cc2F)N=C(N)CO[C@H]1F (racemic) [Compound 83, trans-rac-5-(2,4-difluoro-5-pyrimidin-5-ylphenyl)-6-fluoro-5-methyl-5,6-dihydro-2H-1,4-oxazin-3-amine] | 6.29 | 6.01 | 6.29 |  |  |  |
| C[C@@]1(c2cccc(NC(=O)c3ccc(Cl)cn3)c2)N=C(N)CO[C@H]1F (racemic) [Compound 91, trans-rac-N-[3-(5-amino-2-fluoro-3-methyl-3,6-dihydro-2H-1,4-oxazin-3-yl)phenyl]-5-chloropyridine-2-carboxamide] | 7.86 | 7.03 | 7.82 |  |  |  |
| CC1(c2cc(-c3cc(Cl)cc(Cl)c3)ccn2)COCC(N)=N1 (racemic) [Compound 121] | 6.48 | 5.73 | 6.43 |  |  |  |
| C[C@H]1OC[C@@](C)(c2cccc(NC(=O)c3ccc(Cl)cn3)c2)N=C1N (racemic) [Compound 151, cis-rac-N-[3-(5-Amino-3,6-dimethyl-3,6-dihydro-2H-1,4-oxazin-3-yl)phenyl]-5-chloropyridine-2-carboxamide] | 7.83 | 6.4 | 7.8 |  |  |  |
| C[C@@]1(c2cccc(-c3cncnc3)c2)CO[C@@](C)(C(F)(F)F)C(N)=N1 (racemic) [Compound 161, trans-rac-2,5-dimethyl-5-(3-pyrimidin-5-ylphenyl)-2-(trifluoromethyl)-5,6-dihydro-2H-1,4-oxazin-3-amine] | <5 | 4.53 | <5 |  |  |  |
| C[C@]1(c2cccc(-c3cncnc3)c2)CO[C@@](C)(C(F)(F)F)C(N)=N1 (racemic) [Compound 162, cis-rac-2,5-dimethyl-5-(3-pyrimidin-5-ylphenyl)-2-(trifluoromethyl)-5,6-dihydro-2H-1,4-oxazin-3-amine] | 6.14 | 5.21 | 6.1 |  |  |  |
| CC1(c2cccc(NC(=O)c3ccc(Cl)cn3)c2)COC(F)(C(F)(F)F)C(N)=N1 (single isomer, unassigned) [Compound 15, (R*,R*)—N-{3-[5-amino-6-fluoro-3-methyl-6-(trifluoromethyl)-3,6-dihydro-2H-1,4-oxazin-3-yl]phenyl}-5-chloropyridine-2-carboxamide] |  |  |  | 3090 | 2750 | 490 |
| CC1(c2cccc(NC(=O)c3ccc(C#N)cn3)c2)COCC(N)=N1 (single isomer, unassigned) [Compound 49] | 5.66 | 4.6 | 5.68 |  |  |  |
| CC1(c2cc(-c3cncnc3)ccc2F)COCC(N)=N1 (single isomer, unassigned) [Compound 53] | <5 | <4.52 | 5.28 |  |  |  |
| CC1(c2cc(-c3cncnc3)ccc2F)COCC(N)=N1 (single isomer, unassigned) [Compound 54] | 6.65 | 5.41 | 6.68 |  |  |  |
